According to patent US20230142274A1 (SIMCERE PHARMACEUTICAL CO., LTD., priority 2020, published 2023):
Like-named read-outs stand apart in the source and are kept apart here.

How the values were obtained:
WI-38 cells = assay: Inhibition of human WI-38 embryonic lung cell proliferation (Cell-Titer Glo); assay type: cell-based; conditions: 3 days incubation, read-out: Anti-Proliferative Activity Against WI-38 cells IC50
Description: (§1) Introduction of the experimental principle: After the RAD51 inhibitor to be tested was co-incubated with human embryonic lung cells for a period of time, the influence of the test compound on cell proliferation was measured by a method for counting cell proliferation based on the quantitative measurement of intracellular ATP content.
Materials and Cells: WI-38 cells were purchased from ATCC; fetal bovine serum, 1640 medium and penicillin-streptomycin were purchased from Gibco Inc. (U.S.), 96-well plates were purchased from Corning Inc. (U.S.), and Cell-Titer Glo reagent was purchased from Promega Corporation (U.S.).
Cell culture: WI-38 cells were cultured in an EMEM culture medium containing 10% fetal bovine serum and 1% penicillin-streptomycin at 37° C. in an atmosphere containing 5% CO2. Cells in logarithmic growth phase could be used for experiments.
(§2) Assay of cell proliferation and viability: Cell-Titer Glo reagent was used to measure the inhibitory activities of the compounds on the proliferation of WI-38 cell strain. The concentration of cells was adjusted, and the cells were seeded in a 96-well plate and cultured at 37° C. in an atmosphere containing 5% CO2 for 24 hours. The powder of the compound was dissolved in 100% DMSO to form a 10 mM solution. 10 μl of the solution of the compound was aspirated and transferred into a 96-well compound plate containing 20 μl of DMSO solution in each well for 3-fold dilution and was then formulated to 10 serial dilutions. Thereafter, 2 μl of the solution of the compound was aspirated from the corresponding well and added correspondingly into a 96-well intermediate compound dilution plate containing 78 μl of complete culture medium in each well. The resultant was mixed well, and the plate was centrifuged at 1000 rpm for 1 minute. Finally, 10 μl of the solution of the compound was aspirated from the corresponding well of the 96-well intermediate compound dilution plate, and transferred into the corresponding well of the cell culture plate containing 90 μl of complete culture medium. The final concentration of DMSO was 0.25%. After the addition of the compound, the cells were continued to be incubated for 3 days at 37° C. in an atmosphere containing 5% CO2. Cell-Titer Glo reagent was added to measure cell viability.
% Compound inhibition was calculated and IC50 of the compound was fitted;
(§3) % Compound inhibition=1−100%×(Signal−Bottom)/(Top−Bottom)

Daudi cells = assay: Inhibition of human Daudi lymphoma cell proliferation (Cell-Titer Glo); assay type: cell-based; conditions: 3 days incubation, read-out: Anti-Proliferative Activity Against Daudi cells IC50
Description: as §1, with “cancer” for “human embryonic lung”
Materials and Cells: Daudi cells were purchased from ATCC; fetal bovine serum, 1640 medium and penicillin-streptomycin were purchased from Gibco Inc. (U.S.), 96-well plates were purchased from Corning Inc. (U.S.), and Cell-Titer Glo reagent was purchased from Promega Corporation (U.S.).
Cell culture: Daudi cells were cultured in 1640 culture medium containing 10% fetal bovine serum and 1% penicillin-streptomycin at 37° C. in an atmosphere containing 5% CO2. Cells in logarithmic growth phase could be used for experiments.
as §2, with “of Daudi” for “of WI-38”, “solution” for “solution in each well”, “formulated into” for “formulated to”
% Compound inhibition was calculated and IC50 of the compound was filled;
as §3

Structure (SMILES) | IC50 (Daudi cells; Homo sapiens, 72 h) [nM] | IC50 (Daudi cells) [nM] | IC50 (WI-38 cells; Homo sapiens, 72 h) [nM] | IC50 (WI-38 cells) [nM]
CC(C)OC(=O)Nc1ccc(-c2cnc(C34CC(NC(=O)OC(C)C)(C3)C4)s2)c(S(=O)(=O)NC(C)(C)C)c1 [Example 7, isopropyl (3-(5-(4-(isopropoxycarbonyl)amino-2-(N-(tert-butyl)sulfamoyl)phenyl)thiazol-2-yl)bicyclo[1.1.1]pent-1-yl)carbamate] | 2590 |  | > 25000 | 
CC(C)OC(=O)Nc1ccc(-c2cnc(N3CC4C(C3)C4NC(=O)OC(C)C)s2)c(S(=O)(=O)NC(C)(C)C)c1 (stereo not drawn) [Example 9, isopropyl endo-N-[3-(tert-butylsulfamoyl)-4-[2-[6-(isopropoxycarbonylamino)-3-azabicyclo[3.1.0]hex-3-yl]thiazol-5-yl]phenyl]carbamate] |  | 2060 |  | > 25000
CC(C)OC(=O)N[C@H]1CC[C@H](c2ncc(-c3ccc(NC(=O)N4CCc5ccccc5C4)cc3S(=O)(=O)NC(C)(C)C)s2)CC1 [Example 12, isopropyl trans-N-[4-[5-[2-(tert-butylsulfamoyl)-4-(3,4-dihydro-1H-isoquinoline-2-carbonylamino)phenyl]thiazol-2-yl]cyclohexyl]carbamate] | 20 |  | > 25000 | 
CC(C)OC(=O)NC1CCC(c2ncc(-c3ccc(NC(=O)C4Cc5ccccc5CN4)cc3S(=O)(=O)NC(C)(C)C)s2)CC1 (stereo not drawn) [Example 13, isopropyl trans-N-[4-[5-[2-(tert-butylsulfamoyl)-4-(1,2,3,4-tetrahydroisoquinoline-3-carbonylamino)phenyl]thiazol-2-yl]cyclohexyl]carbamate] | 410 |  | > 25000 | 
CC(C)OC(=O)NC1CCC(c2ncc(-c3ccc(N/C(=N/C#N)NCc4ccccc4)cc3S(=O)(=O)NC(C)(C)C)s2)CC1 (stereo not drawn) [Example 14, isopropyl trans-N-[4-[5-[4-[[(E)-N-benzyl-N′-cyanocarbamoylamino]amino]-2-(tert-butylsulfamoyl)phenyl]thiazol-2-yl]cyclohexyl]carbamate] | 450 |  | > 25000 | 
CC(C)OC(=O)N[C@H]1CC[C@H](c2ncc(-c3ccc(NC(=O)NC4(c5ccccc5)CC4)cc3S(=O)(=O)NC(C)(C)C)s2)CC1 [Example 17, isopropyl trans-N-[4-[5-[2-(tert-butylsulfamoyl)-4-[(1-phenylcyclopropyl)carbamoylamino]phenyl]thiazol-2-yl]cyclohexyl]carbamate] | 110 |  | > 25000 | 
CC(C)OC(=O)N[C@H]1CC[C@H](c2ncc(-c3ccc(NC(=O)C4CC4c4ccccc4)cc3S(=O)(=O)NC(C)(C)C)s2)CC1 (stereo partly drawn) [Example 18, isopropyl trans-N-[4-[5-[2-(tert-butylsulfamoyl)-4-[(2-phenylcyclopropanecarbonyl)amino]phenyl]thiazol-2-yl]cyclohexyl]carbamate] | 90 |  | > 25000 | 
CC(C)OC(=O)N[C@H]1CC[C@H](c2ncc(-c3ccc(NC(=O)NCc4ccccc4)cc3P(C)(C)=O)s2)CC1 [Example 26, isopropyl trans-(4-(5-(4-(3-benzylureido)-2-(dimethylphosphoryl)phenyl)thiazol-2-yl)cyclohexyl)carbamate] | 130 |  | > 25000 | 
COc1ccc(Nc2ccc(-c3cnc([C@H]4CC[C@H](NC(=O)OC(C)C)CC4)s3)c(S(=O)(=O)C3COC3)c2)cn1 [Example 113, isopropyl trans-N-[4-[5-[4-[(6-methoxy-3-pyridyl)amino]-2-(oxetan-3-ylsulfonyl)phenyl]thiazol-2-yl]cyclohexyl]carbamate] | 16 |  |  | 
Cc1cc(Nc2ccc(-c3cnc([C@H]4CC[C@H](NC(=O)OC(C)C)CC4)s3)c(S(=O)(=O)C3CC3)c2)n(C)n1 [Example 116, isopropyl trans-(4-(5-(2-(cyclopropylsulfonyl)-4-((1,3-dimethyl-1H-pyrazol-5-yl)amino)phenyl)thiazol-2-yl)cyclohexyl)carbamate] | 4 |  |  | 

Now from value to compound, other results behind:

IC50 (Daudi cells; Homo sapiens, 72 h) [nM] | IC50 (Daudi cells) [nM] | Structure (SMILES) | IC50 (WI-38 cells; Homo sapiens, 72 h) [nM] | IC50 (WI-38 cells) [nM]
1010 |  | C=CC(=O)N=S(=O)(c1cc(NC(=O)OC(C)C)ccc1-c1cnc([C@H]2CC[C@H](NC(=O)OC(C)C)CC2)s1)C(C)C (relative stereo) [Example 4, isopropyl trans-N-[4-[2-[4-(isopropoxycarbonylamino)cyclohexyl]thiazol-5-yl]-3-(isopropyl-N-prop-2-enoyl-sulfonimidoyl)phenyl]carbamate] | 7220 | 
1160 |  | CC(C)OC(=O)Nc1ccc(-c2nnc([C@H]3CC[C@H](NC(=O)OC(C)C)CC3)s2)c(S(=O)(=O)NC(C)(C)C)c1 [Example 5, isopropyl trans-N-[3-(tert-butylsulfamoyl)-4-[5-[4-(isopropoxycarbonylamino)cyclohexyl]-1,3,4-thiadiazol-2-yl]phenyl]carbamate] | > 25000 | 
280 |  | CC(C)OC(=O)N[C@H]1CC[C@H](c2ncc(-c3ccc(NC(=O)COc4ccccc4)cc3S(=O)(=O)NC(C)(C)C)s2)CC1 [Example 15, isopropyl trans-N-[4-[5-[2-(tert-butylsulfamoyl)-4-[(2-phenoxyacetyl)amino]phenyl]thiazol-2-yl]cyclohexyl]carbamate] | > 25000 | 
490 |  | CC(C)OC(=O)N[C@H]1CC[C@H](c2ncc(-c3ccc(NC(=O)OCC4CC4)cc3S(=O)(=O)NC(C)(C)C)s2)CC1 [Example 16, isopropyl trans-N-[4-[5-[2-(tert-butylsulfamoyl)-4-(cyclopropylmethoxycarbonylamino)phenyl]thiazol-2-yl]cyclohexyl]carbamate] | > 25000 | 
960 |  | CC(C)OC(=O)Nc1ccc(-c2cnc([C@H]3CC[C@H](NC(=O)OC(C)C)CC3)s2)c(NS(=O)(=O)C(C)(C)C)c1 [Example 19, isopropyl trans-N-[3-(tert-butylsulfonylamino)-4-[2-[4-(isopropoxycarbonylamino)cyclohexyl]thiazol-5-yl]phenyl]carbamate] | > 25000 | 
440 |  | CC(C)OC(=O)Nc1ccc(-c2cnc(C3CC4CCC(C3)C4NC(=O)OC(C)C)s2)c(S(=O)(=O)NC(C)(C)C)c1 (stereo not shown) [Example 21, isopropyl N-[3-(tert-butylsulfamoyl)-4-[2-[8-(isopropoxycarbonylamino)-3-bicyclo[3.2.1]octyl]thiazol-5-yl]phenyl]carbamate] | > 25000 | 
35 |  | CC(C)OC(=O)N[C@H]1CC[C@H](c2ncc(-c3ccc(Nc4cc[nH]n4)cc3S(=O)(=O)NC(C)(C)C)s2)CC1 [Example 22, isopropyl trans-(4-(5-(4-((1H-pyrazol-3-yl)amino)-2-(N-(tert-butyl)sulfamoyl)phenyl)thiazol-2-yl)cyclohexyl)carbamate] | 23300 | 
740 |  | CC(C)OC(=O)Nc1ccc(-c2nnc([C@H]3CC[C@H](NC(=O)OC(C)C)CC3)s2)c(S(=O)(=O)C(C)C)c1 [Example 25, isopropyl trans-N-[4-[5-[4-(isopropoxycarbonylamino)cyclohexyl]-1,3,4-thiadiazol-2-yl]-3-isopropylsulfonyl-phenyl]carbamate] | > 25000 | 
